Laboratory results taken from EP4603105A1, “PHARMACEUTICAL COMPOSITION CONTAINING CYCLIC COMPOUND HAVING SELECTIVE KRAS INHIBITORY EFFECT AGAINST HRAS AND NRAS” (CHUGAI SEIYAKU KABUSHIKI KAISHA, priority 2022, dated 2024).

Experiments:
[1] = biological target: GDP-bound NRAS wild-type protein (Homo sapiens, UniProt P01111); test: Binding to NRAS by surface plasmon resonance (SPR), KD and KD ratio to KRAS
Method in brief: (§1)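 Recombinant RAS proteins bearing a biotinylated Avi tag and loaded with GDP served as the captured ligand, recaptured fresh every cycle. Binding responses were referenced to an uncoated surface and a buffer-only blank cycle. Dissociation constants were obtained by 1:1 model fitting at 30°C.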

HRAS wild-type protein = HRAS wild-type protein (Homo sapiens, UniProt P01112); test: Binding to HRAS by surface plasmon resonance (SPR), KD and KD ratio to KRAS
HRAS wild-type protein, sequence (P01112 whole entry): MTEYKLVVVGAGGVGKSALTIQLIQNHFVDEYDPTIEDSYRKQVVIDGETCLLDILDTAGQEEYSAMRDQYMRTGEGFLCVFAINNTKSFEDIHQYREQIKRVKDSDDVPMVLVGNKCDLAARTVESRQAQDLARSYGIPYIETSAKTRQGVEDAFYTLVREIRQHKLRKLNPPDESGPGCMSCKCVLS
Method in brief: as §1

[2] = test system: human lung cancer strain NCI-H441; assay type: cell-based
Method in brief: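 Signal came from […] measured per well once the reagent was added. Beforehand, cells were cultured at 37°C and 5% carbon dioxide on a compound series serially diluted in dimethyl sulfoxide.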

[3] = ratio of KD for GDP-bound NRAS wild-type protein to KD for KRAS
[4] = ratio of KD for HRAS wild-type protein to KD for KRAS
[5] = ratio of KD value for GDP-bound NRAS wild-type protein to KD value for KRAS (SPR)
[6] = ratio of KD value for HRAS wild-type protein to KD value for KRAS (SPR)

GDP-bound NRAS wild-type protein, sequence (P01111 whole entry): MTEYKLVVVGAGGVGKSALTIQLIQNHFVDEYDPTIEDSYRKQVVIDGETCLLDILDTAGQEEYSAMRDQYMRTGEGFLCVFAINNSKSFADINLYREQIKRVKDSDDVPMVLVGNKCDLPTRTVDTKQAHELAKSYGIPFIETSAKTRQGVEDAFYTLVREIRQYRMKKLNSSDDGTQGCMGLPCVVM

Compound	IC50 [2] [nM]	NRAS /KRAS [1, 3]	HRAS /KRAS (HRAS wild-type protein; [4])	NRAS /KRAS [1, 5]	HRAS /KRAS (HRAS wild-type protein; [6])	NRAS /KRAS ([1]; ratio of the KD value with respect to GDP-bound NRAS wild-type protein to the KD value with respect to KRAS)	HRAS /KRAS (HRAS wild-type protein; ratio of the KD value with respect to HRAS wild-type protein to the KD value with respect to KRAS)
CCC[C@H]1C(=O)N[C@@H]([C@@H](C)CC)C(=O)N(C)CC(=O)N(C)[C@H]2C/C=C\CCN(C2=O)[C@@H](Cc2ccc(C(F)(F)F)cc2)C(=O)N(C)CC(=O)N[C@@H](CCc2cc(F)c(C(F)(F)F)c(F)c2)C(=O)N2C[C@H](OCC)C[C@H]2C(=O)NC2(CCC2)C(=O)N(C)[C@@H](C2CCCC2)C(=O)N(CCC)[C@H](C(=O)N(C)C)CC(=O)N1C [PP1769]	12.9	–	–	A (a compound having 10 or more and less than 20 is denoted as A)	A (a compound having 10 or more and less than 20 is denoted as A)	–	–
CC[C@H](C)[C@@H]1NC(=O)[C@H](CC(C)C)N(C)C(=O)C[C@@H](C(=O)N2CCOCC2)N(C)C(=O)[C@H](C2CCCC2)N(C)C(=O)C2(CCC2)NC(=O)[C@@H]2[C@H](OC)CCN2C(=O)[C@H](CCc2cc(F)c(C(F)(F)F)c(F)c2)NC(=O)CN(C)C(=O)[C@H](Cc2ccc(C(F)(F)F)cc2)N2CCCC[C@@H](C2=O)N(C)C(=O)CN(C)C1=O [PP1084]	83.9	C (A compound having a KD ratio of 0.1 or more and less than 3 is denoted as C)	B (a compound having 3 or more and less than 10 is denoted as B)	–	–	–	–
CCC(CC)[C@H]1C(=O)N(C)[C@H](C(=O)N(C)C)CC(=O)N(C)[C@@H](COC)C(=O)N[C@@H]([C@@H](C)CC)C(=O)N(C)CC(=O)N(C)[C@H]2C/C=C\CCN(C2=O)[C@@H](Cc2ccc(C)cc2)C(=O)N(C)CC(=O)N[C@@H](CCc2ccc(Cl)c(Cl)c2)C(=O)N2C[C@H](OC3CCCC3)C[C@H]2C(=O)N(C)C2(CC(C)(C)C2)C(=O)N1C [PP2818]	77.1	A (a compound having 10 or more and less than 20 is denoted as A)	A (a compound having 10 or more and less than 20 is denoted as A)	–	–	–	–
CCO[C@@H]1C[C@H]2C(=O)NC3(CCC3)C(=O)N(C)[C@@H](C3CCCC3)C(=O)N(CCC3CCCC3)[C@H](C(=O)N(C)C)CC(=O)N(C)[C@@H](CC)C(=O)N[C@@H]([C@@H](C)CC)C(=O)N(C)CC(=O)N(C)[C@H]3CCCCCN(C3=O)[C@@H](Cc3ccc(C(F)(F)F)cc3)C(=O)N(C)CC(=O)N[C@@H](CCc3cc(F)c(C(F)(F)F)c(F)c3)C(=O)N2C1 [PP0636]	729	–	–	–	–	A (a compound having 10 or more and less than 20 is denoted as A)	A (a compound having 10 or more and less than 20 is denoted as A)

Now from value to compound, other results behind:

IC50 [2] [nM]	Compound	NRAS /KRAS [1, 3]	HRAS /KRAS (HRAS wild-type protein; [4])	NRAS /KRAS [1, 5]	HRAS /KRAS (HRAS wild-type protein; [6])	NRAS /KRAS ([1]; ratio of the KD value with respect to GDP-bound NRAS wild-type protein to the KD value with respect to KRAS)	HRAS /KRAS (HRAS wild-type protein; ratio of the KD value with respect to HRAS wild-type protein to the KD value with respect to KRAS)
20.2	CCC[C@H]1C(=O)N[C@@H]([C@@H](C)CC)C(=O)N(C)CC(=O)N(C)[C@H]2C/C=C\CCN(C2=O)[C@@H](Cc2ccc(C(F)(F)F)cc2)C(=O)N(C)CC(=O)N[C@@H](CCc2ccc3c(C)cn(C)c3c2)C(=O)N2C[C@H](OCC)C[C@H]2C(=O)NC2(CC(C)(C)C2)C(=O)N(C)[C@@H](C(CC)CC)C(=O)N(C)[C@H](C(=O)N(C)C)CC(=O)N1C [PP2908]	AA (a compound having 20 or more is denoted as AA)	A (a compound having 10 or more and less than 20 is denoted as A)	–	–	–	–
32.2	CC[C@H](C)[C@@H]1NC(=O)[C@H](CC(C)C)N(C)C(=O)C[C@@H](C(=O)N2CCOCC2)N(C)C(=O)[C@H](C2CCCC2)N(C)C(=O)C2(CCCC2)NC(=O)[C@@H]2CCCN2C(=O)[C@H](CCc2ccc(C(F)(F)F)c(Cl)c2)NC(=O)CN(C)C(=O)[C@H](Cc2ccc(C)cc2)N2CCCCC[C@@H](C2=O)N(C)C(=O)CN(C)C1=O [PP0317]	B (a compound having 3 or more and less than 10 is denoted as B)	B (a compound having 3 or more and less than 10 is denoted as B)	–	–	–	–
387	CCO[C@@H]1C[C@H]2C(=O)NC3(CCCC3)C(=O)N(C)[C@@H](C3CCCC3)C(=O)N(C)[C@H](C(=O)N3CCOCC3)CC(=O)N(C)[C@@H](CC)C(=O)N[C@@H]([C@@H](C)CC)C(=O)N(C)CC(=O)N(C)[C@H]3CC(C)=CCN(C3=O)[C@@H](Cc3ccc(C(F)(F)F)cc3)C(=O)N(C)CC(=O)N[C@@H](CCc3cc(F)c(C(F)(F)F)c(F)c3)C(=O)N2C1 [PP1043]	C (A compound having a KD ratio of 0.1 or more and less than 3 is denoted as C)	C (A compound having a KD ratio of 0.1 or more and less than 3 is denoted as C)	–	–	–	–
108	CCO[C@@H]1C[C@H]2C(=O)NC3(CC(F)(F)C3)C(=O)N(C)[C@@H](C(CC)CC)C(=O)N(C)[C@H](CC)CC(=O)N(C)[C@@H](CC)C(=O)N[C@@H]([C@@H](C)CC)C(=O)N(C)CC(=O)N(C)[C@H]3C/C=C\CCN(C3=O)[C@@H](Cc3ccc(C(F)(F)F)cc3)C(=O)N(C)CC(=O)N[C@@H](CCc3cc(F)c(C(F)(F)F)c(F)c3)C(=O)N2C1 [PP1626]	–	–	A (a compound having 10 or more and less than 20 is denoted as A)	A (a compound having 10 or more and less than 20 is denoted as A)	–	–
